Laboratory results as given in patent US20260014143A1, “Prostaglandin E synthase 3 (PTGES3) Inhibiting Compounds” (The Regents of the University of California, priority 2022, published 2026).
“Also recorded” adds a separate entry of the source.

What was measured:
[1] = test system: cysteine 76 of cyslite PTGES3; experiment: Labeling of cysteine 76 of cyslite PTGES3 at 100 uM compound; format: binding
Description: (§1) Compounds were tested at 100 uM for the ability to label cysteine 76 of cyslite PTGES3. In some cases labeling was not detected. Cyslite PTGES3 was then fully labeled with the compounds and the thermal shift values of the fully labeled protein was determined with stabilization values indicated below. […] Finally, select compounds were tested to determine if they inhibited cell growth in AR+LNCaP cells.

[2] = biological target: T1, Recombinant CysLite PTGES3 (cysteine 76) (Homo sapiens, UniProt Q15185); experiment: Dose response assay: labeling of recombinant CysLite PTGES3 by intact protein mass spectrometry; format: binding; conditions: 100 uM BME, 1 μM protein, 1 h ambient temperature; read-out: EC50 with 100 uM BME competitor (half maximal labeling of cyslite PTGES3)
T1 sequence (Q15185 1-160): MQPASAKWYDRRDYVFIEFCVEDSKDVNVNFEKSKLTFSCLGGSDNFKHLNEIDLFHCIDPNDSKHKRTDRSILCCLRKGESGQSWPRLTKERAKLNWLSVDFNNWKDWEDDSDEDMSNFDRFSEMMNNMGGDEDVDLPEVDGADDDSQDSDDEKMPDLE
Description: Recombinant CysLite PTGES3 (1 μM, 50 mM Tris-HCl, pH 8.0, 150 mM NaCl and 100 μM βME) were incubated for 1 h at ambient temperature with lead fragments (4% DMSO) in a 7-, 8- or 9-point threefold serial dilution series in duplicate. Reactions were quenched by the addition of formic acid to a final concentration of 0.4%. Labeling was determined by intact protein mass spectrometry.

[3] = test system: Recombinant CysLite PTGES3; experiment: BME competition assay: labeling of CysLite PTGES3 at high BME competitor; format: binding; conditions: 200 uM compound
Description: Recombinant CysLite PTGES3 (1 μM, 50 mM Tris-HCl, pH 8.0, 150 mM NaCl) were incubated with 200 μM fragment (2% DMSO) and 500 μM or 1 mM BME at ambient temperature for 8 h. Reactions were quenched by the addition of formic acid to a final concentration of 0.4%. Labeling was determined by intact protein mass spectrometry.

[4] = test system: Recombinant CysLite PTGES3; experiment: Differential scanning fluorimetry (thermal shift) of fully labeled CysLite PTGES3; format: binding; conditions: cyslite PTGES3 fully labeled with compound
Description: Recombinant […] PTGES3 at a concentration of 8 μM in 50 mM HEPES pH 7.5, 150 mM NaCl were incubated with compounds or DMSO for unlabeled comparisons, at ambient temperature until complete labeling was observed by intact protein mass spectrometry. 7K Zeba Desalting columns (ThermoFisher) were used to remove excess compound. The Zeba 7K columns were first preequilibrated with 50 mM HEPES (pH 7.5), 150 mM NaCl. Sypro Orange (500x, DMSO) was added to the purified protein-small molecule conjugates to a final concentration of 5x Sypro Orange. These DSF assays were performed in triplicate in white 96-well plates. The plate was sealed with optically clear PCR sealing film (USA Scientific). The thermal shift assay was performed on a Bio-Rad CFX qPCR instrument. The temperature was increased from 23° C. to 95° C. at a rate of 0.5° C./s. After each temperature step, fluorescence was monitored with an excitation of 492 nm and emission of 610 nm. Raw fluorescence values were normalized between 0 and 1 and fit to a Boltzman equation using GraphPad Prism with the maximum value of the fit constrained to 1.

PTGES3-AR interaction = experiment: Far western blot of AR-PTGES3 interaction; format: biochemical; conditions: CysLite PTGES3 pre-modified with compound
Description: Flag-AR was loaded on a gel, transferred to membrane, and renatured. The membranes were incubated with recombinant CysLite PTGES3 protein or recombinant CysLite PTGES3 protein labeled with 1. The interaction was detected with PTGES3 antibody. […] Each blot experiment was performed twice to determine reproducibility.

[5] = test system: PTGES3 enhanced AR/ARE binding; experiment: AR/ARE gel shift (EMSA) assay; format: biochemical; conditions: DHT+ buffer, free ARE DNA detected by SYBR gold
Description: The reactions were then loaded on a DNA retardation gel. ARE DNA bands were detected by SYBR gold. […] Experiment was performed twice to determine reproducibility.
Electrophoretic mobility shift assays (EMSA) were performed using recombinant AR protein (EMD Millipore) and 3×ARE dsDNA from the ARR3TK plasmid. Protein-DNA complexes were allowed to incubate in room temperature for 30 min in loading buffer (20 mM HEPES, 100 mM KCl, 2 ng/ml poly(dI-dC), 10% glycerol, and 20 nM DHT), followed by electrophoresis on 6% DNA Retardation Gels in TBE buffer (PH 8.0). Visualization of protein-DNA complexes was performed with SYBR Gold DNA staining dye (Invitrogen).

AR+ LNCaP cells = experiment: Cell growth of AR+ LNCaP cells; format: cell-based
Description: (§2) Normalized to DMSO and analyzed by IncuCyte system (n=3 as biological replicates; Mean±SEM).
as §1
LNCaP cell lines were grown in the RPMI 1640 medium (Gibco) supplemented with 10% fetal bovine serum (FBS; Gibco). Cells were grown in a humidified 5% CO2 incubator at 37° C.

[6] = Parallel artificial membrane permeability assay (PAMPA); format: in vitro ADME
AR-independent PC3 cells = experiment: Cell growth of AR-independent PC3 cells; format: cell-based
Description: as §2
Fold change of cell count normalized over day 0 was analyzed by IncuCyte system (n=3 as biological replicates; Mean SEM). Unpaired two-tailed t-test was used to determine statistical significance (ns=no significant difference; *** P<0.001).

[7] = test system: AR protein levels, LNCaP cells; experiment: AR protein levels in LNCaP cells by western blotting; format: cell-based; conditions: 100 μM, 48 h, nuclear AR, western blot
Description: Nuclear AR and TBP levels were detected by western blotting. Each western blot experiment was performed twice to determine reproducibility.

[8] = test system: AR target genes, LNCaP cells; experiment: AR target gene mRNA levels in LNCaP cells by real-time PCR; format: cell-based; conditions: 100 μM, 48 h, mRNA over 18s rRNA
Description: RNA was collected, indicated genes mRNA levels over 18s rRNA were measured by real-time PCR (n=3 as biological replicates; Mean±SEM).

SMILES | 4 h labeling (100 uM) [1] | 24 h labeling (100 uM) [1] [%] | Thermal Shift (Cyslite PTGES3) ΔTm [4] | other results
C=CS(=O)(=O)N[C@@H]1CN(C(=O)c2ccc(O)cc2)C[C@H]1c1ccccc1 [Compound 5] | 4.71% | 35.51 |  | 
CN(C)CCSSCCNC(=O)[C@@H]1CN(C(=O)c2cc(F)c(O)c(Cl)c2)C[C@H]1c1ccccc1 (racemic) [Compound 1] |  |  | confirmed by DSF to stabilize CysLite PTGES3 | EC50 [2]: 70.6 µM; % Labeling in presence of 500 uM BME competitor ([3]; 500 uM BME): 79.03%; % Labeling in presence of 1 mM BME competitor ([3]; 1 mM BME): 76.67%; Thermal Shift (Cyslite PTGES3) ΔTm ([4]; listed as compound 1): 1.6 °C; PTGES3-AR interaction (far western blot) (PTGES3-AR interaction): ablated in vitro PTGES3-AR interaction; also recorded: disrupted the PTGS3-AR interaction; PTGES3 enhanced AR/ARE binding (gel shift) [5]: inhibited PTGES3 enhanced AR/ARE binding; also recorded: increases the free ARE levels
C=CS(=O)(=O)N[C@@H]1CN(C(=O)c2ccc(S(=O)(=O)NC)cc2)C[C@H]1c1ccccc1 [Compound 7] | 7.21% | 36.40 | ΔTm + 2.1 C. ° C. | 
CN(C)CCSSCCNC(=O)[C@@H]1CN(C(=O)c2cc(F)c(O)c(Cl)c2)C[C@H]1c1ccccc1 [Compound 994364] |  |  | increases the thermal melt temperature | 
C=CS(=O)(=O)N[C@@H]1CN(C(=O)c2cccc(S(N)(=O)=O)c2)C[C@H]1c1ccccc1 [Compound 11] | 17.84% | 72.62 | ΔTm + 0.4 °C | Cell activity (inhibited cell growth in AR+ LNCaP cells) (AR+ LNCaP cells): Yes
C=CS(=O)(=O)N1CCN(C(=O)[C@@H]2CN(C(=O)c3ccc(S(N)(=O)=O)c(F)c3)C[C@H]2c2ccccc2)CC1 [Compound 12] | 6.27% | 36.65 | No stabilization | 
C=CS(=O)(=O)N[C@@H]1CN(C(=O)c2ccc(S(N)(=O)=O)cc2)C[C@H]1c1ccccc1 [Compound 6] | 9.61% | 44.20 | ΔTm + 3.0 °C | Cell activity (inhibited cell growth in AR+ LNCaP cells) (AR+ LNCaP cells): Yes
C=CS(=O)(=O)N[C@@H]1CN(C(=O)c2ccc(S(N)(=O)=O)c(F)c2)C[C@H]1c1ccccc1 [Compound 9] | 12.38% | 51.4 | ΔTm + 3.3 °C | Cell activity (inhibited cell growth in AR+ LNCaP cells) (AR+ LNCaP cells): Yes
C=CS(=O)(=O)NCCNC(=O)[C@@H]1CN(C(=O)c2ccc(S(N)(=O)=O)c(F)c2)C[C@H]1c1ccccc1 [Compound 13] | Not detected | 13.63 | No stabilization | 
C=CS(=O)(=O)N[C@@H]1CN(C(=O)c2cc(F)cc(Cl)c2)C[C@H]1c1ccccc1 [Compound 8] | Not detected | 14.74 |  | 
C=CS(=O)(=O)N[C@@H]1CN(C(=O)c2ccc(S(N)(=O)=O)c(Cl)c2)C[C@H]1c1ccccc1 [Compound 10] | Not detected | 27.44 | ΔTm + 3.3 °C | 
C=CS(=O)(=O)NC1CN(C(=O)[C@@H]2CN(C(=O)c3ccc(S(N)(=O)=O)c(F)c3)C[C@H]2c2ccccc2)C1 [Compound 14] | 7.18% | 48.46 | No stabilization | Cell activity (inhibited cell growth in AR+ LNCaP cells) (AR+ LNCaP cells): No
C=CS(=O)(=O)N[C@@H]1CN(C(=O)c2cc(F)c(O)c(Cl)c2)C[C@H]1c1ccccc1 [Compound 3] | 5.27% | 28.15 | ΔTm + 3.3 °C | 
COC(=O)[C@@H]1CN(C(=O)c2cc(F)c(O)c(Cl)c2)C[C@H]1c1ccccc1 (racemic) [Compound 2] |  |  |  | PAMPA assay [6]: Permeable; AR + cell line activity (growth of AR-driven LNCaP cells) (AR+ LNCaP cells): significantly reduced and inhibit cell proliferation in AR+ and Yes; Growth of AR-independent PC3 (AR−) cells (AR-independent PC3 cells): not AR-independent PC3 cells; also recorded: not AR− negative cell lines; AR protein levels [7]: significantly reduced; Expression of AR target genes [8]: significantly reduced
C=CS(=O)(=O)N[C@@H]1CN(C(=O)c2ccccc2)C[C@H]1c1ccccc1 [Compound 4] | 4.01% | 20.75 | ΔTm + 1.9 °C | 
